Reference: ChEMBL document CHEMBL1145042, “Understanding the structure-activity relationship of the human ether-a-go-go-related gene cardiac K+ channel. A model for bad behavior” (J Med Chem, 2003)

Test system: Bacteria
Assay: Bacterial minimum inhibitory concentration
Format: functional

MIC: < 2.4 µM
SMILES: Cc1c(F)c(N2CCNC(C)C2)cc2c1c(=O)c(C(=O)O)cn2C1CC1 (stereo unspecified) [GREPAFLOXACIN]
